A melting point compilation (Tetko et al.; mined from patent text by program, amines drawn as free bases though some values may be those of a salt)

melting point [°C] | SMILES
184 | CCOC(=O)c1c(O)n(C)c2cc(-c3ccncc3)ccc2c1=O
164 to 165 | COc1cc2c(cc1C(=O)Cc1ccc(C(=O)O)cc1)C(C)(C)CCC2(C)C
163 to 164 | CC1=NC(NC(=O)Nc2cccc(C)c2)C(=O)N(CC(=O)C2CCCCCCC2)c2c(C)cccc21 (centres undefined)
169 to 173 | O=[N+]([O-])c1oc2ccc(CCO)cc2c1-c1ccccc1
175 to 176 | O=C1CCC(=O)N1c1cccc(OCc2nc3ccccc3s2)c1
248 to 250 | CCOC(=O)c1cccc2nc(CNC)n(Cc3ccc(-c4ccccc4-c4nnn[nH]4)cc3)c12
136 to 139 | CCOc1ccc(Cl)cc1C(N)=O
155 to 163 | Cc1nc(Br)sc1C(=O)N[C@H](C)[C@](O)(Cn1cncn1)c1ccc(F)cc1F
181 to 183 | CC(=NC(C#N)=C(N)C#N)c1ccccc1O
97 | O=S(=O)(c1ccc(F)cc1)N1CCCC1c1cccs1 (racemic)
72 | COC1OC(=O)CC(C)(C)C1O (centres undefined)
92 to 94 | CCCc1c(OCCCCCC(=O)c2cc(C)c(OC)c(OC)c2C)ccc(C(=O)O)c1O
104 to 105 | COc1cc(OC)c2c(c1)OC(C)(C)CC2=O
62 to 63 | CCOC(=O)CCCOc1ccc2c(c1)C(=O)CCC2
110 to 120 | CCn1c(-c2ccc(OC)c(OC)c2)cc(=O)n(C)c1=O
94 to 94.5 | N#Cc1ccc(-c2ccc(Br)o2)cc1
191 to 194 | CC(=O)N1C(=O)Cc2cc(F)c(N3C(=O)C4=C(CCCC4)C3=O)cc21
100 to 102 | O=C(/C=C/C=C(c1cccc(Cl)c1)c1cccc(Cl)c1)NCCCCc1cccnc1
138 to 140 | Fc1ccc(NN=Cc2cccs2)cc1
206 to 208 | CC(C)(COc1ccc(Cl)cc1)C(=O)C(Oc1ccc(Cl)cc1)n1cncn1 (centres undefined)
99 to 105 | CN(CCNC(=O)NCCCOc1cccc(CN2CCCCC2)c1)CCC(c1ccc(Cl)cc1)c1ccccn1 (centres undefined)
268 to 270 | COc1cccc(Oc2cccc(-c3c(O)c4ccc(Cl)cc4[nH]c3=O)c2)c1
142 to 144 | CC1(c2ccccc2)OC(=O)C(=O)CC1=O (centres undefined)
90 to 92 | CONS(=O)(=O)c1cccc(C)c1
163 to 164 | CCOC(=O)c1ccc(-c2csc(-c3ccc(C(F)(F)F)cc3)n2)cc1

melting point [°C] | SMILES
203 to 205 | CSc1ccc(N=Cc2ccc(Cl)cc2)cc1
60 to 62 | COc1ccc(C=O)cc1OC1CC=CC1
210 to 215 | O=[N+]([O-])c1ccc(NS(=O)(=O)c2cccc3ccccc23)cc1
147 | CC1(C)CC(OC(=O)c2ccccc2)CC(C)(C)N1CC#N
198 to 199 | CCC(=O)N(C(=O)CC)c1cc2c(cc1C)N(C(=O)CC)c1ccc(N(C)C)cc1N2C(=O)CC
114 | C#CCn1cc(C#N)c(C=O)c1
104 to 105 | CC(C)(C)OC(=O)NCCOc1noc2ccc(F)cc12
119 to 120 | COc1cc(-c2cc(=O)c3ccc(OCC(O)CNC(C)(C)C)cc3o2)cc(OC)c1OC (centres undefined)
87 to 97 | CC(Cc1c[nH]c2ccccc12)(NC(=O)OC1C2CC3CC(C2)CC1C3)C(=O)NCCc1ccco1 (centres undefined)
128 | COc1nc(N)c(Cl)cc1C(=O)CCC1CCN(CC(C)C)CC1
33 to 34 | CCCCCCCCCCCCCCCCCCOCCC(=O)COCc1ccccc1
111 to 112 | c1ccc(OCCSCc2nnc(-c3ccc(OCc4cccnc4)cc3)o2)cc1
234 to 235 | O=C(O)CCC(=O)c1ccc(-n2cncn2)cc1
183 to 184 | CNC(=O)C1=CC2(CCOCC2)Oc2ccc([N+](=O)[O-])cc21
> 290 | Cc1ccccc1-c1coc2cc(O)cc(Cl)c2c1=O
171 to 172 | O=[N+]([O-])c1ccc(S(=O)(=O)OS(=O)(=O)c2ccc([N+](=O)[O-])cc2)cc1
104 to 105 | CCOC(=O)c1cnc(-c2ccccc2OCC2CC2)[nH]c1=O
246 | CC(C)C(c1ccc2ncc(=O)[nH]c2c1)n1ccnc1 (centres undefined)
116 to 117 | COC(=O)c1ccccc1C(=O)Nc1cc(C(F)(F)F)on1
44 to 45 | CCC1C(=O)Oc2c(Oc3ccccc3C)cccc21 (centres undefined)
228 to 230 | COc1cc2nc(N3CCN(C(=O)c4nnc(SC)o4)CC3)nc(N)c2cc1OC
205 to 210 | COc1nc2ncnc(NCC=C(C)C)c2[nH]1
92 to 94 | CC(=O)Nc1ccc(C)c2c1C(=O)CCC2
156 to 159 | CCc1nc(C)[nH]c1I
138 to 139 | CC(=O)OC1C(CO)OC(n2cnc3c(N)ncnc32)C1OC(C)=O (centres undefined)

melting point [°C] | SMILES
81.5 to 83 | O=C(O)CCCCCCCC(=O)CC(O)C(=O)C=Cc1ccccc1 (centres undefined)
155 to 175 | CC(C)(C)N(NC(=O)c1ccccc1)C(=O)c1ccco1
171 to 173 | CC(OC(=O)Nc1ccc(-c2ncn(-c3ccc(OC(F)(F)F)cc3)n2)cc1)C(F)(F)C(F)(F)F (centres undefined)
258 | CN1CCN(CC(=O)Nc2cccc3c2C(=O)c2c-3n[nH]c2-c2ccc(N3CCOCC3)cc2)CC1
167 to 168 | CS(=O)(=O)c1ccc(-c2nn3c(c2-c2ccc(F)cc2)OCCCC3)cc1
152 to 155 | CC(C)c1cccc(C(C)C)c1NC(=O)Nc1c(-c2cccc(O)c2)c2cccnc2n(C)c1=O
122 to 124 | C=CC(=O)N1CC(c2ccc(Cl)cc2)Sc2ccccc21 (centres undefined)
102 to 104 | CC(C)(C1OCCO1)C(O)(COc1ccc(F)cc1)Cn1cncn1 (centres undefined)
92 to 94 | O=c1c(Cl)c(Cl)cnn1-c1cccc(COc2ccccc2)c1
127 to 129 | FC(F)(F)c1ccc2nc(-c3ccccc3)oc2n1
350 | O=C1CCc2ncc3cc(Cl)c(Cl)cc3c2N1
211 to 213 | Cn1c(=N)c(C(=O)NCCN2CCOCC2)c(O)c2cc(Cl)ccc21
300 | N=C(O)c1cc(C(O)=Nc2ccc(O)cc2)c(C(=O)O)cc1C(=O)O
148 to 149 | CC(=O)N(N(CCCl)S(C)(=O)=O)S(C)(=O)=O
120 | CCOC(=O)c1cc(OCc2ccccc2)c2nc(C3CC3)n(C)c2c1
236 to 238 | Cc1cc(C(=O)NCCCCc2ccc(-c3ccc(=O)[nH]n3)cc2)on1
77 to 78 | CCOC(=O)c1ncsc1-c1cccc(I)c1
330 | O=C(CCl)Nc1nc2cc3nc(NC(=O)CCl)sc3cc2s1
80 to 83 | CCCCC(=O)c1c(-c2ccc3cc(OCC(=O)OCC)ccc3c2)oc2ccc(Cl)cc12
151 to 154 | CON=C(C(=O)O)c1nc(NC=O)ccc1Cl
165 to 167 | CC(C)n1nc(-c2cc(C(=O)NCCO)cnc2-c2ccccc2)ccc1=O
> 300 | O=C(O)c1cn(-c2ccc(F)cc2F)c2c(F)c(N3Cc4cccc(F)c4C3)c(F)cc2c1=O
235 to 237 | CCC(=O)Nc1ccc(-c2ccnc3c(C(=O)c4ccco4)cnn23)cc1
142 to 144 | COC(=O)c1cc(C(=O)c2ccc(OC)c(C(=O)OC)c2)ccc1OC
213 | CC1(C)CC(=O)NC2=C1c1ccc(Cl)cc1CC2

melting point [°C] | SMILES
214 to 217 | CCOc1csc2c(=O)c(SC)cn(C)c12
220 to 221 | COc1cc2c(N3CCN(C(=O)Nc4ccc(Oc5ccccc5)cc4)CC3)ncnc2cc1OCc1ccccc1
97 to 100 | CC(O)=C(C#N)C(=O)Oc1ccc(Cl)cc1
273 to 275 | S=C1N=c2ccc(OCCN3CCC(Cc4ccccc4)CC3)cc2=N1
135 to 136 | CCON=C(CC)C1=C(O)CC(c2ccc(NC(C)=O)cc2)CC1=O (centres undefined)
189 to 192 | CC12CCC3C(CCC4CC(CC(=O)O)CCC43C)C1CCC2CC=O (centres undefined)
98.3 to 99.5 | O=C(CCS)Nc1ccc(Nc2ccccc2)cc1
74 to 76 | CC(=O)SC(CC(=O)c1cccc(C)c1)C(=O)O (centres undefined)
293 to 295 | CCOc1c(F)cc2[nH]c(=O)c(=O)[nH]c2c1[N+](=O)[O-]
102 to 103 | O=[N+]([O-])c1ccc2c(cnn2Cc2ccccc2[N+](=O)[O-])c1
70 to 73 | CC(C)(C)C(=O)C=C(c1ccccc1)n1cncn1
126 to 128 | Nc1cccc(C2=NCCO2)c1
161 to 162 | Cc1cc2c(cc1C)SC(CCCN1CCN(c3ccc(F)cc3)CC1)C(=O)N2 (centres undefined)
139 to 140 | CCNC(=O)c1c(Cl)cccc1NC(C)(C)C
296 to 298 | CN(C)c1ccc2c(c1)C(=O)CC(c1ccccc1O)=N2
131 to 133 | Nc1cc(CCC(=O)CCc2ccc(O)c(N)c2)ccc1O
157 | O=C(O)CCc1cc2cc(Cl)ccc2n1S(=O)(=O)c1ccc2c(c1)CCN2
187 to 188 | O=[N+]([O-])c1cnn2c(-c3ccccc3)nc3ccccc3c12
138 to 140 | CCCNc1nc(N)nc2c1ncn2C1C=CC(CO)C1 (centres undefined)
83 | COc1ccc(N=C(C#Cc2ccccc2OC)N2CCN(Cc3ccc(C)cc3)CC2)cc1
127 to 130 | CCOC(=O)c1ccc2[nH]c(C)c(SC)c2c1
225 | C#Cc1ccc(C2=C(C#N)C(=C(C#N)C#N)OC2(C)C)cc1
183 to 185 | CC(C)(C)OC(=O)N1CCn2c(c(C(N)=O)c(Cl)c2-c2ccccc2)C1
92 to 99 | NC(=O)Cc1ccc2c(c1)sc1ccc(Cl)cc12

SMILES | melting point [°C]
CCC1(CC)C(=O)C(C)N(c2ccc(C#N)c(Cl)c2)C1=O (centres undefined) | 93.5 to 94.5
Cc1cccc2c(Nc3cccc(OCCN(CCCl)CCCl)c3)c3cccc(C(=O)NCCN(C)C)c3nc12 | 129 to 130
CN(C)C(=O)Oc1ccc2c(c1)N(Cc1ccccc1)CCC2 | 104
Cc1nc(C(=O)N(C)C)c2n1-c1ccc(Cl)cc1C(c1ccccc1F)=NC2 | 158 to 160
CN1CCN(Cc2ccc(Cl)nc2)C1=N[N+](=O)[O-] | 165 to 167
